Laboratory results reported in patent publication US20160251367A1, “SYNTHESIS OF TRITOQUALINE SALTS” (Chrysalis Pharma, priority 2014, published 2016).
Values after ≈ are worked out from the molar mass of the structure shown. Read-outs that look alike come from different tables or passages of the source.

Assay: physchem
Assay type: physicochemical
Text: The dissolution tests show a very substantial and surprising increase in tritoqualine.

Compound | solubility (water) [µM] | increase of the initial solubility of tritoqualine in water | solubility [M/L]
CC(=O)O.CCOc1c(N)c2c(c(OCC)c1OCC)C(C1c3c(cc4c(c3OC)OCO4)CCN1C)OC2=O (centres unmarked) [Tritoqualine acetate, tritoqualine acetate] | – | 1500 times | 0.75
CC1(C)C2CCC1(CS(=O)(=O)O)C(=O)C2.CCOc1c(N)c2c(c(OCC)c1OCC)C(C1c3c(cc4c(c3OC)OCO4)CCN1C)OC2=O (centres unmarked) [Tritoqualine camphorsulfonate, tritoqualine camphorsulfonate] | – | 11 000 times | –
CCOc1c(N)c2c(c(OCC)c1OCC)C(C1c3c(cc4c(c3OC)OCO4)CCN1C)OC2=O.O=C(O)C=CC(=O)O (centres unmarked) [Tritoqualine fumarate, tritoqualine fumarate] | – | 15 000 times | –
CCOc1c(N)c2c(c(OCC)c1OCC)C(C1c3c(cc4c(c3OC)OCO4)CCN1C)OC2=O.Cl (centres unmarked) [Tritoqualine hydrochloride, tritoqualine hydrochloride] | – | 500 times | 0.25

Now from value to compound:

solubility (water) [µM] | increase of the initial solubility of tritoqualine in water | solubility [M/L] | Compound
500 (≈ 250 µg/mL) | – | – | CCOc1c(N)c2c(c(OCC)c1OCC)C(C1c3c(cc4c(c3OC)OCO4)CCN1C)OC2=O (racemic) [tritoqualine, 7-Amino-4,5,6-triethoxy-3-(5,6,7,8-tetrahydro-4-methoxy-6-methyl-1,3-dioxolo[4,5-g]isoquinolin-5-yl) phthalide]
– | 50 000 times | – | CCOc1c(N)c2c(c(OCC)c1OCC)C(C1c3c(cc4c(c3OC)OCO4)CCN1C)OC2=O.CS(=O)(=O)O (centres unmarked) [Tritoqualine methylsulfonate, tritoqualine methylsulfonate]
– | 31 000 times | – | CCOc1c(N)c2c(c(OCC)c1OCC)C(C1c3c(cc4c(c3OC)OCO4)CCN1C)OC2=O.O=P(O)(O)O (centres unmarked) [Tritoqualine phosphate, tritoqualine phosphate]
– | 2500 times | 1.25 | tritoqualine sulfate
